Experimental data as given in patent US4250176A, “Piperazine derivatives” (priority 1979, dated 1981).
≈ marks a conversion by molar mass, not a printed value. Counter-ions that a name gives are not always drawn. Like-named read-outs stand apart in the source and are kept apart here.

Columns and labels:
[1] = tested on: histamine paw oedema in guinea pigs; test: Histamine paw oedema in guinea pigs; assay type: in vivo, guinea pig; conditions: Cavia porcellus, oral dose giving paw reaction below 10 units 10 minutes after 50 μg histamine s.p., 2 hours after dosing, read-out: Anaphylaxis in guinea pigs oral effective dose in mg/kg: Histamine oedema
Protocol: Guinea pigs, weighing between 400 and 500 g, are sensitized to ovalbumin by subplantar (s.p.) injection of 0.05 ml of antiserum in the left hind paw. The animals are then starved and orally treated, 24 hours after the sensitization, with saline (=control animals) or a particular dose of the compound under investigation. The histamine injection (at a dose of 50 μg) was given s.p. in the right hind paw 2 hours after the oral pretreatment with the compound.

[2] = tested on: Guinea-pig ileum strips, histamine-induced contraction; test: Anti-histamine activity in "vitro": histamine-induced spasms of guinea-pig ileum strips; assay type: cell-based; conditions: Cavia porcellus, 5 min, histamine 0.5 mg/liter, 5 minutes incubation, concentration giving significant inhibition (50%) of the contraction
Protocol: The histamine--(0.5 mg/liter) induced spasms are recorded Kymographically with an isotonic lever giving a 5-fold magnification.

[3] = tested on: Guinea pigs sensitized to ovalbumin (anaphylactic shock); test: Anaphylaxis in guinea pigs: protection against death after ovalbumin challenge (survival); assay type: in vivo, guinea pig; conditions: Cavia porcellus, estimated ED50, oral, protection against death after i.v. 0.6 mg ovalbumin, read-out: Anaphylaxis in guinea pigs oral effective dose in mg/kg: Survival
Protocol: The anti-anaphylactic and antihistaminic effects of the subject compounds (I) and salts thereof are studied "in vivo" in guinea pigs.
Guinea pigs, weighing between 400 and 500 g, are sensitized to ovalbumin by subplantar (s.p.) injection of 0.05 ml of antiserum in the left hind paw. The animals are then starved and orally treated, 24 hours after the sensitization, with saline (=control animals) or a particular dose of the compound under investigation.
The histamine injection (at a dose of 50 μg) was given s.p. in the right hind paw 2 hours after the oral pretreatment with the compound. The diameters of both hind paws are first measured before the histamine injection is given and again 10 minutes thereafter. The animals are challenged intravenously with 0.6 mg of ovalbumin 30 minutes after the histamine injection. All control animals develop typical primary anaphylactic shock symptoms (coughing, difficult breathing, convulsions) and 85% of these control animals die within 15 minutes after the ovalbumin injection. Protection against death is used as the criterion for possible drug effects and the estimated ED50 -value, i.e. the oral dose whereby the protection is observed in 50% of the guinea pigs, is listed in the tables below.

[4] = Table I-a, read-out: Histamine in "vitro" (ileum) effective conc.
[5] = Table I-d, read-out: Histamine in "vitro" (ileum) effective dose

Structure (SMILES) | minimal effective dose ([1]; Table I-a) [mg/kg] | IC50 [2, 4] [mg/L] | ED50 ([3]; Table I-a) [mg/kg] | also measured
Cc1ccc(C(c2ccc(F)cc2)N2CCN(CCCn3c(=O)[nH]c4ccccc43)CC2)cc1 (stereo not drawn) [1-[3-{4-[(4-fluorophenyl)-(4-methylphenyl)methyl]-1-piperazinyl}propyl]-1,3-dihydro-2H-benzimidazol-2-one] | < 2.5 | 0.16 (≈ 0.349 µM) | < 2.5 | 
O=c1[nH]c2ccccc2n1CCCN1CCN(C(c2ccc(Cl)cc2)c2ccc(Cl)cc2)CC1 [1-[3-{4-[bis(4-chlorophenyl)methyl]-1-piperazinyl}propyl]-1,3-dihydro-2H-benzimidazol-2-one] | < 2.5 | 0.16 (≈ 0.323 µM) | < 2.5 | 
O=c1[nH]c2ccccc2n1CCCN1CCC(OC(c2ccc(F)cc2)c2ccc(F)cc2)CC1 [1-[3-{4-[bis(4-fluorophenyl)methoxy]-1-piperidinyl}propyl]-1,3-dihydro-2H-benzimidazol-2-one hydrochloride.hemihydrate] |  |  |  | minimal effective dose ([1]; Table I-d): 0.63 mg/kg; IC50 [2, 5]: 0.0025 mg/L; ED50 ([3]; Table I-d): 0.63 mg/kg
CC(CN1CCN(C(c2ccc(F)cc2)c2ccc(F)cc2)CC1)Cn1c(=O)[nH]c2ccccc21 (stereo not drawn) [1-[3-{4-[bis(4-fluorophenyl)methyl]-1-piperazinyl}-2-methylpropyl]-1,3-dihydro-2H-benzimidazol-2-one] | 1.25 | 0.02 (≈ 0.042 µM) | 1.25 | 
CC(CN1CCN(C(c2ccc(F)cc2)c2ccc(F)cc2)CC1)Cn1cnc2ccccc21 (stereo not drawn) [1-[3-{4-[bis(4-fluorophenyl)methyl]-1-piperazinyl}-2-methylpropyl]-1H-benzimidazole trihydrochloride.hemihydrate] |  |  |  | minimal effective dose ([1]; Table I-b): 1.25 mg/kg; IC50 ([2]; Table I-b, read-out: Histamine in "vitro" (ileum) effective conc.): 0.02 mg/L; ED50 ([3]; Table I-b): 0.63 mg/kg
O=c1[nH]c2ccccc2n1CCCN1CCN(C(c2ccc(F)cc2)c2ccc(F)cc2)CC1 [1-[3-{4-[bis(4-fluorophenyl)methyl]-1-piperazinyl}propyl]-1,3-dihydro-2H-benzimidazol-2-one] | 0.16 | 0.01 (≈ 0.0216 µM) | 0.31 | 
O=c1[nH]c2cc(Cl)ccc2n1CCCN1CCN(C(c2ccc(F)cc2)c2ccc(F)cc2)CC1 [1-[3-{4-[bis(4-fluorophenyl)methyl]-1-piperazinyl}propyl]-5-chloro-1,3-dihydro-2H-benzimidazol-2-one] | 1.25 | 0.04 (≈ 0.0805 µM) | 1.25 | 
O.O=c1[nH]c2ccc(Cl)cc2n1CCCN1CCN(C(c2ccc(F)cc2)c2ccc(F)cc2)CC1 [1-[3-{4-[bis(4-fluorophenyl)methyl]-1-piperazinyl}propyl]-6-chloro-1,3-dihydro-2H-benzimidazol-2-one hydrate] | 1.25 | 0.02 | 0.63 | 
O=c1[nH]c2ccccc2n1CCCN1CCN(C(c2ccccc2)c2cccc(Cl)c2)CC1 (stereo not drawn) [1-[3-{4-[α-(3-chlorophenyl-α-phenylmethyl]-1-piperazinyl}propyl]-1,3-dihydro-2H-benzimidazol-2-one] | 1.25 | 0.01 (≈ 0.0217 µM) | 0.63 | 
O=c1[nH]c2ccccc2n1CCCN1CCN(C(c2ccc(Cl)cc2)c2ccccc2F)CC1 (stereo not drawn) [1-[3-{4-[α-(4-chlorophenyl)-α-(2-fluorophenyl)]-1-piperazinyl}propyl]-1,3-dihydro-2H-benzimidazol-2-one] | 1.25 | 0.02 (≈ 0.0418 µM) | 0.31 | 
O=c1[nH]c2ccccc2n1CCCN1CCN(C(c2ccccc2)c2ccc(Cl)cc2)CC1 (stereo not drawn) [1-[3-{4-[α-(4-chlorophenyl)-α-phenylmethyl]-1-piperazinyl}propyl]-1,3-dihydro-2H-benzimidazol-2-one] | 0.63 | 0.01 (≈ 0.0217 µM) | 1.25 | 
O=c1[nH]c2ccccc2n1CCCN1CCN(C(c2ccccc2)c2ccc(F)cc2)CC1 (stereo not drawn) [1-[3-{4-[α-(4-fluorophenyl)-α-phenylmethyl]-1-piperazinyl}propyl]-1,3-dihydro-2H-benzimidazol-2-one] | 0.31 | 0.01 (≈ 0.0225 µM) | 0.31 | 
O=c1[nH]c2ccccc2n1CCCCN1CCN(C(c2ccc(F)cc2)c2ccc(F)cc2)CC1 [1-[4-{4-[bis(4-fluorophenyl)methyl]-1-piperazinyl}-butyl]-1,3-dihydro-2H-benzimidazol-2-one dihydrochloride.hydrate.hemiethanolate] | 0.31 | 0.01 | 0.16 | 
O=c1[nH]c2ccccc2n1CCCCCN1CCN(C(c2ccc(F)cc2)c2ccc(F)cc2)CC1 [1-[5-{4-[bis(4-fluorophenyl)-methyl]-1-piperazinyl}pentyl]-1,3-dihydro-2H-benzimidazol-2-one dihydrochloride.hydrate] | 2.5 | 0.01 | 1.25 | 
CC(=O)n1c(=O)n(CCCN2CCN(C(c3ccccc3)c3ccccc3)CC2)c2ccccc21 [1-acetyl-3-{3-[4-(diphenylmethyl)-1-piperazinyl]propyl}-1,3-dihydro-2H-benzimidazol-2-one] | 0.31 | 0.005 (≈ 0.0107 µM) | 0.1 | 
Cl.O=c1[nH]c2ccccc2n1CCN1CCC(OC(c2ccccc2)c2ccccc2)CC1 [1-{2-[4-(diphenylmethoxy)-1-piperidinyl]ethyl}-1,3-dihydro-2H-benzimidazol-2-one hydrochloride] |  |  |  | minimal effective dose ([1]; Table I-d): 0.16 mg/kg; IC50 [2, 5]: 0.0025 mg/L; ED50 ([3]; Table I-d): 0.31 mg/kg
O=c1[nH]c2cc(C(F)(F)F)ccc2n1CCN1CCN(C(c2ccccc2)c2ccccc2)CC1 [1-{2-[4-(diphenylmethyl)-1-piperazinyl]ethyl}-1,3-dihydro-5-(trifluoromethyl)-2H-benzimidazol-2-one] | 1.25 | 0.02 (≈ 0.0416 µM) | 0.31 | 
Cc1ccc2c(c1)[nH]c(=O)n2CCN1CCN(C(c2ccccc2)c2ccccc2)CC1 [1-{2-[4-(diphenylmethyl)-1-piperazinyl]ethyl}-1,3-dihydro-5-methyl-2H-benzimidazol-2-one] | 1.25 | 0.01 (≈ 0.0234 µM) | 1.25 | 
O=c1[nH]c2ccccc2n1CCCN1CCC(OC(c2ccccc2)c2ccccc2)CC1 [1-{3-[4-(diphenylmethoxy)-1-piperidinyl]-propyl}-1,3-dihydro-2H-benzimidazol-2-one] |  |  |  | minimal effective dose ([1]; Table I-d): 1.25 mg/kg; IC50 [2, 5]: 0.0025 mg/L (≈ 0.00566 µM); ED50 ([3]; Table I-d): 0.63 mg/kg
c1ccc(C(OC2CCN(CCCn3cnc4ccccc43)CC2)c2ccccc2)cc1 [1-{3-[4-(diphenylmethoxy)-1-piperidinyl]propyl}-1H-benzimidazole] |  |  |  | minimal effective dose ([1]; Table I-d): 0.16 mg/kg; IC50 [2, 5]: 0.0025 mg/L (≈ 0.00587 µM); ED50 ([3]; Table I-d): 0.16 mg/kg
C=C(C)n1c(=O)n(CCCN2CCN(C(c3ccccc3)c3ccccc3)CC2)c2ccccc21 [1-{3-[4-(diphenylmethyl)-1-piperazinyl]propyl}-1,3-dihydro-3-(1-methylethenyl)-2H-benzimidazol-2-one] | 0.31 | 0.01 (≈ 0.0214 µM) | 0.16 | 
O=c1n(CO)c2ccccc2n1CCCN1CCN(C(c2ccccc2)c2ccccc2)CC1 [1-{3-[4-(diphenylmethyl)-1-piperazinyl]propyl}-1,3-dihydro-3-(hydroxymethyl)-2H-benzimidazol-2-one] | 0.31 | 0.01 (≈ 0.0219 µM) | 0.31 | 
Cl.Cl.O=c1n(CCCN2CCN(C(c3ccccc3)c3ccccc3)CC2)c2ccccc2n1Cc1ccccc1 [1-{3-[4-(diphenylmethyl)-1-piperazinyl]propyl}-1,3-dihydro-3-(phenylmethyl)-2H-benzimidazol-2-one dihydrochloride] | 1.25 | 0.16 | 1.25 | 
Cn1c(=O)n(CCCN2CCN(C(c3ccccc3)c3ccccc3)CC2)c2ccccc21 [1-{3-[4-(diphenylmethyl)-1-piperazinyl]propyl}-1,3-dihydro-3-methyl-2H-benzimidazol-2-one dihydrochloride. hydrate] | 2.5 | 0.01 | 1.25 | 
